Data published in patent US8461162B2, “Pyrazolo[1,5-a]pyrimidine derivatives” (Merck Sharp & Dohme Corp., priority 2007, dated 2013).
pIC50: −log10 of the molar value.

Each molecule was assayed against T1, recombinant MARK3 enzyme (Homo sapiens, UniProt P27448) (assay: MARK 3 Assay (HTRF, Cdc25C biotinylated peptide substrate)). Settings: 10 μM ATP, 2 hours at 25° C.
T1 construct: purchased University of Dundee
Type: biochemical
Procedure: MARK3 activity was assayed in vitro using a Cdc25C biotinylated peptide substrate (Cell Signalling Technologies). The phosphopeptide product was quantitated using a Homogenous Time-Resolved Fluorescence (HTRF) assay system (Park et al., 1999, Anal. Biochem. 269:94-104). The reaction mixture contained 50 mM HEPES/Tris-HCl, pH 7.4; 10 mM NaCl, 5 mM MgCl2, 0.2 mM NaVO4, 5 mM β-glycerol phosphate, 0.1% Tween-20, 2 mM dithiothreitol, 0.1% BSA, 10 μM ATP, 1 μM peptide substrate, and 10 nM recombinant MARK3 enzyme (University of Dundee) in a final volume of 12 μl. The buffer additionally contained protease inhibitor cocktail (Roche EDTA-free, 1 tab per 50 ml). The kinase reaction was incubated for 2 hours at 25° C., and then terminated with 3 μl Stop/Detection Buffer (50 mM HEPES, pH 7.0, 16.6 mM EDTA, 0.5M KF, 0.1% Tween-20, 0.1% BSA, 2 μg/ml SLX^ent 665 (CISBIO), and 2 μg/ml Eu^3+ cryptate label antibody (CISBIO)). The reaction was allowed to equilibrate overnight at 0° C., and relative fluorescent units were read on an HTRF enabled plate reader (e.g. TECAN GENios Pro).
Inhibitor compounds were assayed in the reaction described above to determine compound IC50s. Aliquots of compound dissolved in DMSO were added to the reaction wells in a third-log dilution series covering a range of 1 nM to 10 μM. Relative phospho substrate formation, read as HTRF fluorescence units, was measured over the range of compound concentrations and a titration curve generated.

T1 sequence (P27448 whole entry, species assumed): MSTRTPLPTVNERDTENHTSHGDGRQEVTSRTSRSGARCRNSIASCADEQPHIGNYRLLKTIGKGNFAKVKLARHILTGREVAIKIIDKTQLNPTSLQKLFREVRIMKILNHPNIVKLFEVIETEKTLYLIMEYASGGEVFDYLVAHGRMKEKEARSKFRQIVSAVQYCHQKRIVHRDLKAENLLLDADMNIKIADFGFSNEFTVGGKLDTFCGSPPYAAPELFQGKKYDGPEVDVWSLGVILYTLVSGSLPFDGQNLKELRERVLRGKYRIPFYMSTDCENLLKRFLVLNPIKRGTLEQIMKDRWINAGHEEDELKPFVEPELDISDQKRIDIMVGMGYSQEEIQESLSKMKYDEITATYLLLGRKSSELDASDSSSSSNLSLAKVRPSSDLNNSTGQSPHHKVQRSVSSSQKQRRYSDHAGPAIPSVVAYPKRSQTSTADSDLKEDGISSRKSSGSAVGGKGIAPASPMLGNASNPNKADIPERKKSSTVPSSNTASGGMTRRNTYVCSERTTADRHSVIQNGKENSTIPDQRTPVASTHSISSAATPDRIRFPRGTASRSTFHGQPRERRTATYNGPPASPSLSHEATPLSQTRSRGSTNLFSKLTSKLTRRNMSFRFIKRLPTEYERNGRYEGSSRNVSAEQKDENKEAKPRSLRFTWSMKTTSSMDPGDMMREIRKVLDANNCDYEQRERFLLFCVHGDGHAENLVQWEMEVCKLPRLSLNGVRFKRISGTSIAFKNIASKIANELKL

Compound | pIC50
Cn1cc(-c2cnc3c(-c4ccc(C(=O)N[C@@H]5CCCC[C@@H]5N)cc4)cnn3c2)cn1 (stereo in doubt) [Example 219, N-[2-aminocyclohexyl]-4-[6-(1-methyl-1H-pyrazol-4-yl)pyrazolo[1,5-a]pyrimidin-3-yl]benzamide] | 6.90
O=C(NCC(F)(F)F)c1cc(-c2cnn3cc(-c4ccn(CCCN5CCC(F)(F)C5)c(=O)c4)cnc23)cs1 [Example 8, 4-(6-{1-[3-(3,3-difluoropyrrolidin-1-yl)propyl]-2-oxo-1,2-dihydropyridin-4-yl}pyrazolo[1,5-a]pyrimidin-3-yl)-N-(2,2,2-trifluoroethyl)thiophene-2-carboxamide] | 6.80
CC(C)[C@@H](NC(=O)c1cc(-c2cnn3cc(-c4ccc(NCC(C)(C)O)nc4)cnc23)cs1)C(F)(F)F [Example 49, 4-(6-{6-[(2-hydroxy-2-methylpropyl)amino]pyridin-3-yl}pyrazolo[1,5-a]pyrimidin-3-yl)-N-[(1R)-2-methyl-1-(trifluoromethyl)propyl]thiophene-2-carboxamide] | 8.40
O=C(NCC(F)(F)F)c1cc(-c2cnn3cc(-c4ccc(N5CCOCC5)nc4)cnc23)cs1 [Example 50, 4-[6-(6-morpholin-4-ylpyridin-3-yl)pyrazolo[1,5-a]pyrimidin-3-yl]-N-(2,2,2-trifluoroethyl)thiophene-2-carboxamide] | 7.46
O=C(NCc1nccs1)c1cc(-c2cnn3cc(-c4cccnc4)cnc23)cs1 [Example 184, 4-(6-pyridin-3-ylpyrazolo[1,5-a]pyrimidin-3-yl)-N-(1,3-thiazol-2-ylmethyl)thiophene-2-carboxamide] | 6.22
Cc1sc(C(=O)N[C@@H]2[C@H](N)CCCC2(F)F)cc1-c1cnn2cc(-c3cnn(C)c3)cnc12 [Example 202, N-[(1R,6R)-6-amino-2,2-difluorocyclohexyl]-5-methyl-4-[6-(1-methyl-1H-pyrazol-4-yl)pyrazolo[1,5-a]pyrimidin-3-yl]thiophene-2-] | > 9.52
Cn1cc(-c2cnc3c(-c4nc(C(=O)NCC(F)(F)F)sc4Cl)cnn3c2)cn1 [Example 205, 5-chloro-4-[6-(1-methyl-1H-pyrazol-4-yl)pyrazolo[1,5-a]pyrimidin-3-yl]-N-(2,2,2-trifluoroethyl)-1,3-thiazole-2-carboxamide] | 7.22
